Source: patent US6194601A, “5,6-dihydronaphthalenyl derivatives having retinoid-like activity” (Bristol-Myers Squibb Company, priority 1999, dated 2001)
“Also recorded” adds a separate entry of the source. Where two headings read alike, the source gives them in different places.

What was measured:
RARα = molecular target: T1, RARα (Homo sapiens, UniProt P10276); assay: apparent Kd for binding to RARα; conditions: read-out: Kd (α)
T1 sequence (P10276 1-462): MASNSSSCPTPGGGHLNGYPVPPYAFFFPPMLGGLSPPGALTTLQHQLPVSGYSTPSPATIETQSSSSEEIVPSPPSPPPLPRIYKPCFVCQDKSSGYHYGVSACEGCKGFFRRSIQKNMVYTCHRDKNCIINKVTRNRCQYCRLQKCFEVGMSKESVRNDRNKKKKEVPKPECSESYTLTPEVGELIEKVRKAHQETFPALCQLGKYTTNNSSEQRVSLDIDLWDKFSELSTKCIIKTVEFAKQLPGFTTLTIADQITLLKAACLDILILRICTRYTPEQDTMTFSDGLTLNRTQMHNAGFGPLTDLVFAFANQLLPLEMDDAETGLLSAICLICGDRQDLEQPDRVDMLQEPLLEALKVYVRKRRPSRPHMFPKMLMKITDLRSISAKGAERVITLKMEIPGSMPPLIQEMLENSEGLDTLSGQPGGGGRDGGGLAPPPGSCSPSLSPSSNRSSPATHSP

RARβ = molecular target: T2, RARβ (Homo sapiens, UniProt P10826); assay: apparent Kd for binding to RARβ; conditions: read-out: Kd (β)
T2 sequence (P10826 1-455): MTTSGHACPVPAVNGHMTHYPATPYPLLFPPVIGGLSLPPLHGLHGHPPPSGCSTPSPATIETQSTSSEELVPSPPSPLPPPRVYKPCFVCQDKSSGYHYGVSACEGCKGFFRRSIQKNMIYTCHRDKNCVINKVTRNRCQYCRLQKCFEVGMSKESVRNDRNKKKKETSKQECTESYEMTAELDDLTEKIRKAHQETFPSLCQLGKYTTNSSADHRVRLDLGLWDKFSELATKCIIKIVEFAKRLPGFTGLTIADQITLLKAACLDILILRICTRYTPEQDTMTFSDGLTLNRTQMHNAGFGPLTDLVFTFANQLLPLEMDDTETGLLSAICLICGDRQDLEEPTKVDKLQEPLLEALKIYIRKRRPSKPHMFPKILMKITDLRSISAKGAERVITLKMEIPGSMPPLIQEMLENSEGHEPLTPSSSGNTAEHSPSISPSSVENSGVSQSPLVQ

RARγ = molecular target: T3, RARγ (Homo sapiens, UniProt P13631); assay: apparent Kd for binding to RARγ; conditions: read-out: Kd (γ)
T3 sequence (P13631 1-454): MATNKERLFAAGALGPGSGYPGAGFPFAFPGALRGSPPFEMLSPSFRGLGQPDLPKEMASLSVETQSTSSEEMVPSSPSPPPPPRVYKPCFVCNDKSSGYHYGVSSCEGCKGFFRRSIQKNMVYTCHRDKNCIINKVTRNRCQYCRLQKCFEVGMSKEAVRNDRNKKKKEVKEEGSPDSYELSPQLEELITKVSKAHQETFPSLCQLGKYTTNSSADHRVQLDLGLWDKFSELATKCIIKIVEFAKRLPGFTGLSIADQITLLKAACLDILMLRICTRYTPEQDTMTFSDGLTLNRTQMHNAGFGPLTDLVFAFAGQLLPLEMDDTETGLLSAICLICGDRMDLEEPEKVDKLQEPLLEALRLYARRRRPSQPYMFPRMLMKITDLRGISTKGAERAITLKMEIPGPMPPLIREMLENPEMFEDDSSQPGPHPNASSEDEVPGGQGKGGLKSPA

rhino mice [1] = assay: rhino mouse assay, comedolytic activity (utriculi size reduction); assay type: in vivo; conditions: for ED30: Table 4, topical activity; for ED30 (30% reduction in utriculi size): rhino mouse, FIG. 1 study
Procedure: (§1) The comedolytic activity of the compounds of the instant application has been evaluated by the rhino mouse assay model. The compounds were administered daily to rhino mice topically in ethanol at various concentrations for 5 days. Signs of skin irritation are evaluated at day 5 by visual inspection of the mouse skin and graded for edema, erythema (redness) and scaling (flakiness) with scales of 1-5 and 1-4, respectively. Skin samples were taken at day 7 and processed for image analysis to measure the size of utriculi.

[2] = rabbit skin irritation model; assay type: in vivo; conditions: rabbit, in vivo, topical or ocular; from IS3 and ED30, Table 4; read-out: Therapeutic index
rabbit skin = rabbit skin irritation model; assay type: in vivo; conditions: for Erythema score: Table 3, topical daily 14 days, ethanol; for IS3, irritation relative to TRA: species not given
[3] = system: SK-BR-3 Breast CA (E2-indep.); assay: inhibition of cell proliferation (3H-thymidine uptake), SK-BR-3; assay type: cell-based; conditions: Homo sapiens
Procedure: (§2) The compounds of the present invention have been also tested as inhibitors of cell proliferation (^3 H-thymidine uptake). Cells were plated on 96-well plates at a pre-determined density so that 80% cellular confluency is reached by day 7. 24 hr after plating, culture media was changed and cells were treated with the appropriate drug or vehicle (day 0). Culture media was changed on days 3 and 6. Cellular proliferation was measured on Day 7 by quantitating the amount of tritiated thymidine ([3H]-TdR) incorporated into the celular DNA (Odham, K. G. (1977) in: Radiotracer Techniques and Applications, edited by E. A. Evans and M. Murawatsu; M. Dekker Inc. New York; 2, 823).

[4] = system: H3396 Breast CA (E2-dep.); assay: inhibition of cell proliferation (3H-thymidine uptake), H3396; assay type: cell-based; conditions: Homo sapiens
Procedure: as §2

MCF7 Breast CA (E2-dep.) = assay: inhibition of cell proliferation (3H-thymidine uptake), MCF7; assay type: cell-based; conditions: Homo sapiens
Procedure: as §2

Calu-3 Lung CA = assay: inhibition of cell proliferation (3H-thymidine uptake), Calu-3; assay type: cell-based; conditions: Homo sapiens
Procedure: as §2

[5] = system: Detroit 562 Pharyngeal CA; assay: inhibition of cell proliferation (3H-thymidine uptake), Detroit 562; assay type: cell-based; conditions: Homo sapiens
Procedure: as §2

SCC 25 tongue SCC = assay: inhibition of cell proliferation (3H-thymidine uptake), SCC 25; assay type: cell-based; conditions: Homo sapiens
Procedure: as §2

[6] = system: H3396 (ER+) breast carcinoma subcutaneous xenografts; assay: tumor growth inhibition in athymic mice bearing H3396 xenografts; assay type: in vivo; conditions: intraperitoneal, every two days for 10 days
Procedure: This potent anti-proliferative activity is also translated in vivo on athymic mice bearing H3396 (ER+) breast carcinoma subcutaneous xenografts (P. A. Trail, et al., Cancer Research, 52, p. 5693-5700 (1992). Athymic mice were implanted with 0.72 mg (60-day release) estradiol pellets (Innovative Research of America, Toledo, Ohio) one day prior to the implantation of H3396 tumors. H3396 tumors were measured in two perpendicular directions at weekly or biweekly intervals, using calipers. Tumor volume was calculated according to the equation: V=I×w^2 /2, where V=volume (mm3), I=measurement of longest axis (mm), and w=measurement of axis perpendicular to 1. In general, there were 8-10 mice in each control or treatment group. Data are presented as median tumor size for control or treated groups. Antitumor activity is expressed in terms of median TVDD values, where TVDD=T-C/TVDT; T-C is defined as the median time (days) for treated tumors to reach 500 mm3 in size minus the median time for control tumors to reach 500 mm3 in size and TVDT is the time (days) for control tumors to double in volume (250-500 mm3).
In this experiment, the tumor growth delay was equivalent to 1.2 log cell kill at 30 mg/kg.

rhino mice [7] = system: rhino mice; design: species or system rhino mouse; conditions: mouse, in vivo
Procedure: as §1

[8] = topical daily in ethanol, 5 days
[9] = 7 days, 3H-thymidine, read-out: IC50
[10] = species and concentration not given

## CC(C)(C)C#CC1=CCC(C)(C)c2ccc(/C=C/c3ccc(C(=O)O)cc3)cc21 [Compound I, 4-[(E)-(5,6-Dihydro-5,5-dimethyl-8-(3,3-dimethyl-1-butyn-1-yl)-2-naphthalenyl)ethenyl]benzoic acid]
RARα
  Kd: 2.23 nM
RARβ
  Kd: 1.26 nM
RARγ
  Kd: 25 nM
Rhino mice [1]; [8]
  Utriculi reduction at 0.1 mM: 72%
  Utriculi reduction at 1 mM: 100%
Rhino mice [1]
  ED30: 55000 nM
  ED30 (30% reduction in utriculi size): 55000 nM
[2]
  selectivity ratio: > 99
Rabbit skin
  therapeutic index compared with TRA and analogs: highly superior to TRA and to most of the closely related analogs
Rabbit skin; 1 mM, 14 days, FIG. 2
  irritation to rabbit skin: did not cause any irritation
Rabbit skin; 5 mM
  irritation to rabbit skin: did not cause any signs of irritation to rabbit skin; also recorded: did not show any signs of irritation
Rabbit skin; concentration not given
  Erythema score: 0
Rabbit skin; in rabbits at 5 mM
  IS3, irritation in words: No irritation
[3]; [9]
  IC50: 8 nM
[4]; [9]
  IC50: 40 nM
MCF7 Breast CA (E2-dep.); [9]
  IC50: 6500 nM
Calu-3 Lung CA; [9]
  IC50: 10 nM
[5]; [9]
  IC50: 5500 nM
SCC 25 tongue SCC; [9]
  IC50: 9500 nM
[6]; 30 mg/kg
  tumor growth delay equivalent (log cell kill): 1.2 log cell kill
[6]; FIG. 3
  potency in inhibiting tumor growth compared with doxorubicin: as potent as doxorubicin

## CCC(C)(/C=C\C1=CCC(C)(C)c2ccc(/C=C/c3ccc(C(=O)O)cc3)cc21)CC [Compound B, 4-[(E)-(5,6-Dihydro-5,5-dimethyl-8-((Z)-3-methyl-3-ethyl-1-penten-1-yl)-2-naphthalenyl)ethenyl]benzoic acid]
Rhino mice [1]; 1.6 mM, topical daily in ethanol, 5 days
  Utriculi reduction (at 1.6 mM, printed in the 1 mM column): 100%
Rabbit skin; concentration not given
  Erythema score: 2.8
Rabbit skin; [10]
  IS3, irritation in words: Irritating
Rabbit skin
  IS3, irritation relative to TRA: <TRA

## CC(C)(C)/C=C\C1=CCC(C)(C)c2ccc(/C=C/c3ccc(C(=O)O)cc3)cc21 [Compound C, 4-[(E)-(5,6-Dihydro-5,5-dimethyl-8-((Z)-3,3-dimethyl-1-buten-1-yl)-2-naphthalenyl)ethenyl]benzoic acid]
Rhino mice [1]; 0.01 mM, topical daily in ethanol, 5 days
  Utriculi reduction (at 0.01 mM, printed in the 0.1 mM column): 30%
Rhino mice [1]
  ED30: 80000 nM
Rhino mice [7]
  IS3, irritation in words: Very irritating
[2]
  selectivity ratio: < 20
Rabbit skin; concentration not given
  Erythema score: 6.0
Rabbit skin; in rabbits, concentration not given
  IS3, irritation in words: Very irritating

## 4-[(E)-(5,6-Dihydro-5,5-dimethyl-8-(1-methyl-1-ethane-thio)-2-naphthalenyl)ethenyl]benzoic acid [Compound D]
Rhino mice [1]; [8]
  Utriculi reduction at 0.1 mM: 85.4%
Rhino mice [1]
  ED30: < 100000 nM
Rabbit skin; concentration not given
  Erythema score: 5.7
Rabbit skin; [10]
  IS3, irritation in words: Very irritating
Rabbit skin
  IS3, irritation relative to TRA: >>TRA

## CC1=C(/C=C/C(C)=C/C=C/C(C)=C/C(=O)O)C(C)(C)CCC1 [TRA, All-trans retinoic acid]
Rhino mice [1]; [8]
  Utriculi reduction at 0.1 mM: 64%
  Utriculi reduction at 1 mM: 100%
Rhino mice [1]
  ED30: 15000 nM
  ED30 (30% reduction in utriculi size): 28000 nM
Rabbit skin; concentration not given
  Erythema score: 4.8
Rabbit skin; Table 4
  IS3 (concentration necessary to achieve an irritation score of 3): 0.3 mM
Rabbit skin; concentrations above 0.1 mM, 14 days, FIG. 2
  irritation to rabbit skin: caused significant irritation to rabbit skin
[3]
  IC50: 1 nM
[4]
  IC50: 300 nM
MCF7 Breast CA (E2-dep.)
  IC50: 650 nM
Calu-3 Lung CA
  IC50: 100 nM
[5]
  IC50: > 10000 nM
SCC 25 tongue SCC
  IC50: 50 nM

## CC(C)(O)/C=C\C1=CCC(C)(C)c2ccc(/C=C/c3ccc(C(=O)O)cc3)cc21 [II, 4-[(E)-(5,6-Dihydro-5,5-dimethyl-8-((Z)-3-methyl-3-hydroxyl-1-buten-1-yl)-2-naphthalenyl)ethenyl]benzoic acid]
RARα
  Kd: 1.6 nM
RARβ
  Kd: 2.19 nM
RARγ
  Kd: 1.57 nM
Rhino mice [1]; [8]
  Utriculi reduction at 0.1 mM: 8.4%
  Utriculi reduction at 1 mM: 84%
Rhino mice [1]
  ED30: 400000 nM
Rhino mice [7]
  IS3, irritation in words: No irritation
Rabbit skin; concentration not given
  Erythema score: 0

## CC1=C(C#CC(C)(C)C)c2cc(/C=C/c3ccc(C(=O)O)cc3)ccc2C(C)(C)C1 [Compound A, 4-[(E)-(5,6-Dihydro-5,5-dimethyl-7-methyl-8-(3,3-dimethyl-1-butyn-1-yl)-2-naphthalenyl)ethenyl]benzoic acid]
Rhino mice [1]; [8]
  Utriculi reduction at 0.1 mM: 100%
Rhino mice [1]
  ED30: < 100000 nM
Rhino mice [7]
  IS3, irritation in words: Very irritating
Rabbit skin; concentration not given
  Erythema score: 3.1
